# Data from patent publication US6162925A, “Antibiotic for methicillin resistant bacteria” (Research Corporation Tech., Inc., priority 1999, dated 2000).
# Read-outs that look alike come from different tables or passages of the source.
# Tests used:
# [1] = test system: Staphylococcus aureus 76; assay: MIC, broth microdilution (NCCLS), S. aureus 76; format: cell-based; conditions: read-out: Minimal Inhibitory Concentration (MIC)
# Method: (§1) Test compounds were assayed against Staphylococcus aureus FDA 209P by the 10 fold agar disc diffusion assay on BHI-plates at pH=7 and pH=9 in accordance with the procedure from the National Committee for Clinical Laboratory Standards 1989. Susceptibility testing. A panel of 16 bacteria was used to evaluate the antimicrobial activity of the compounds (Table 2). The MIC of each antimicrobial agent was determined using a microdilution method according to NCCLS standards^1. Serial twofold dilutions of antibiotics were prepared in Mueller-Hinton broth (Difco Laboratories, Detroit, Mich.). Bacteria were grown to early log phase at 35° C. (1 hours) in Mueller-Hinton broth and cultures were diluted to achieve a final inoculum of 5×10^5 CFU per ml. Microtiter plates were incubated at 35° C. for 20 h and then were read using a Thermomax microplate reader (Molecular Devices, Sunnyvale, Calif.) and a microtiter plate reading mirror. The MIC was defined as the lowest concentration of antibiotic which inhibited the development of visible growth at the end of the incubation period. The standard reference strains were Staphyloccocus aureus ATCC […], Enterococcus faecalis ATCC 29212, E. faecium ATCC 35667, Escherichia coli ATCC 25922, and Pseudomonas aeruginosa ATCC 27853. Imipenem and vancomycin were used as antibiotic controls and values for reference strains were in accordance with the NCCLS.
# (§2) Staphylococcus Methicillin
# [2] = test system: Staphylococcus aureus sa201; assay: MIC, broth microdilution (NCCLS), S. aureus sa201; format: cell-based; conditions: read-out: Minimal Inhibitory Concentration (MIC)
# Method: as §1
# Staphylococcus Clinical isolate,
# aureus sa201 Spain resistant, β-
# [3] = test system: Staphylococcus aureus ATCC 29213; assay: MIC, broth microdilution (NCCLS), S. aureus ATCC 29213; format: cell-based; conditions: read-out: Minimal Inhibitory Concentration (MIC)
# Method: as §1
# Staphylococcus ATCC Reference strain
# [4] = test system: Enterococcus faecalis ATCC 29212; assay: MIC, broth microdilution (NCCLS), E. faecalis ATCC 29212; format: cell-based; conditions: read-out: Minimal Inhibitory Concentration (MIC)
# Method: as §1
# (§3) Enterococcus ATCC Reference strain
# [5] = test system: Staphylococcus haemolyticus UA281; assay: MIC, broth microdilution (NCCLS), S. haemolyticus UA281; format: cell-based; conditions: read-out: Minimal Inhibitory Concentration (MIC)
# Method: as §1, §2
# haemolyticus UA281 resistant
# [6] = test system: Pseudomonas Aeruginosa ATCC 27853; assay: MIC, broth microdilution (NCCLS), P. aeruginosa ATCC 27853; format: cell-based; conditions: read-out: Minimal Inhibitory Concentration (MIC)
# Method: as §1
# [7] = test system: Enterococcus faecalis V583; assay: MIC, broth microdilution (NCCLS), E. faecalis V583; format: cell-based; conditions: read-out: Minimal Inhibitory Concentration (MIC)
# Method: as §1
# (§4) Enterococcus Vancomycin
# faecalis V583 resistant, vanB
# [8] = test system: Enterococcus faecium BM4147; assay: MIC, broth microdilution (NCCLS), E. faecium BM4147; format: cell-based; conditions: read-out: Minimal Inhibitory Concentration (MIC)
# Method: as §1, §4
# faecium BM4147 resistant, vanA
# [9] = test system: Escherichia coli ATCC 25922; assay: MIC, broth microdilution (NCCLS), E. coli ATCC 25922; format: cell-based; conditions: read-out: Minimal Inhibitory Concentration (MIC)
# Method: as §1
# [10] = test system: Enterococcus faecium efm040; assay: MIC, broth microdilution (NCCLS), E. faecium efm040; format: cell-based; conditions: read-out: Minimal Inhibitory Concentration (MIC)
# Method: as §1
# Enterococcus Clinical isolate,
# faecium efm040 U.S.A. resistant
# [11] = test system: Staphylococcus aureus COL; assay: MIC, broth microdilution (NCCLS), S. aureus COL; format: cell-based; conditions: 20 h, read-out: Minimal Inhibitory Concentration (MIC)
# Method: as §1, §2
# aureus COL resistant, β-
# [12] = test system: Enterococcus faecium ATCC 35667; assay: MIC, broth microdilution (NCCLS), E. faecium ATCC 35667; format: cell-based; conditions: read-out: Minimal Inhibitory Concentration (MIC)
# Method: as §1, §3
# [13] = test system: Staphylococcus aureus sa ATCC 13709; assay: MIC, broth microdilution (NCCLS), S. aureus sa ATCC 13709; format: cell-based; conditions: read-out: Minimal Inhibitory Concentration (MIC)
# Method: as §1
# [14] = test system: Staphylococcus aureus PC1; assay: MIC, broth microdilution (NCCLS), S. aureus PC1; format: cell-based; conditions: read-out: Minimal Inhibitory Concentration (MIC)
# Method: as §1
# Staphylococcus Type A βlactamase
# aureus PC1 hyperproducer
# [15] = test system: Staphylococcus aureus COL8A; assay: MIC, broth microdilution (NCCLS), S. aureus COL8A; format: cell-based; conditions: 20 h, read-out: Minimal Inhibitory Concentration (MIC)
# Method: as §1, §2
# aureus COL8A susceptible, […]
# [16] = test system: Staphylococcus aureus ATCC 33593; assay: MIC, broth microdilution (NCCLS), S. aureus ATCC 33593; format: cell-based; conditions: read-out: Minimal Inhibitory Concentration (MIC)
# Method: as §1
# Staphylococcus ATCC Methicillin
# aureus ATCC 33593 resistant, β-
# [17] = cited from earlier work
# [18] = Stability of cyclization product 29; format: physicochemical
# Method: To a mixture of 28 (70 mg, 0.067 mmol, 1.0 eq) and anisole (0.1 mL) was added TFA (1.0 mL). the resulting mixture was stirred for 15 min at room temperature. The TFA was evaporated and coevaporated with CH2 Cl2 to dryness. The resulting residue was dried on vacuo for 2 h and triturated with ethyl ether to give a white solid. This white solid was dissolved in THF (1.5 mL). To this solution was added triethylamine (20 μL, 0.14 mmol, 2.0 eq). After stirring 10 min., the solvent was evaporated and the resulting residue was immediately purified by PTLC (silica gel, CH2 Cl2 : EtOAc: MeOH, 4:1:0.5) to give 40 mg (67%) of 29 as a white solid. This product was unstable with a tendency to form a bicycle by-product (t1/2 is about 1 day) and was used for the next step immediately. ^1 H NMR (300 MHz, CD3 Cl/D2 O vs TMS): δ1.62 (4H, m); 2.45 (2H, m); 2.76/2.78 (3H, s); 3.32 (1H, m); 3.70 (1H, m); 3.93 (4H, m); 5.17 (6H, m); 7.32 (20H, m) ppm. IR (NaCl, film): 3381, 3258, 2934, 1765, 1713, 1646, 1608, 1504, 1452, 1252, 1186, 1096, 1063 cm^-1. MS (ES+): Calcd. for (C45 H49 N9 O11 +H)=892.4. Found (M+H)=892.4; (M+H-108)=784.3.
# [19] = basic aqueous solutions; hydrolytic opening of six-membered ring; cited from earlier work
# [20] = test system: Gram-positive and Gram-negative bacteria; conditions: S- versus R-configuration in the heterocyclic portion; cited from earlier work
# [21] = Staphylococcus aureus, S. aureus 76, methicillin resistant, β-lactamase positive, 35° C., 20 h
# [22] = S. aureus sa201, clinical isolate Spain, methicillin resistant, β-lactamase positive, 35° C., 20 h
# [23] = ATCC29213, S. aureus ATCC 29213, reference strain, 35° C., 20 h
# [24] = ATCC29212, E. faecalis ATCC 29212, reference strain, 35° C., 20 h
# [25] = S. haemolyticus UA281, methicillin resistant, 35° C., 20 h
# [26] = ATCC27853, P. aeruginosa ATCC 27853, reference strain, 35° C., 20 h
# [27] = E. faecalis V583, vancomycin resistant, vanB, 35° C., 20 h
# [28] = E. faecium BM4147, vancomycin resistant, vanA, 35° C., 20 h
# [29] = ATCC25922, E. coli ATCC 25922, reference strain, 35° C., 20 h
# [30] = E. faecium efm040, clinical isolate U.S.A., ampicillin resistant, 35° C., 20 h
# [31] = S. aureus COL, methicillin resistant, β-lactamase negative, 35° C.
# [32] = ATCC35667, E. faecium ATCC 35667, reference strain, 35° C., 20 h
# [33] = ATCC13709, S. aureus sa ATCC 13709, Smith strain, 35° C., 20 h
# [34] = S. aureus PC1, Type A βlactamase hyperproducer, 35° C., 20 h
# [35] = ATCC33593, S. aureus ATCC 33593, methicillin resistant, β-lactamase positive, 35° C., 20 h
Structure (SMILES),"MIC [1, 21]","MIC [2, 22]","MIC [3, 23]","MIC [4, 24]","MIC [5, 25]","MIC [6, 26]","MIC [8, 28]","MIC [9, 29]","MIC [10, 30]","MIC [11, 31]","MIC [12, 32]","MIC [13, 33]","MIC [14, 34]",MIC [15],"MIC [16, 35]",further results
"COC(=O)NC1=NC(=O)C(N(C)C(=O)C[C@@H](N)CCCNC(=N)N)CN1 (some centres unmarked) [Compound 73c, 3S,5'S/R-3-amino-6-[(aminoiminomethyl)amino]-N-(2-methoxycarbonylamino-1,4,5,6-tetrahydro-4-oxo-5-pyrimidinyl)-N-methyl-hexanamide]",64 µg/mL,64 µg/mL,64 µg/mL,64 µg/mL,256 µg/mL,> 256 µg/mL,64 µg/mL,> 256 µg/mL,> 256 µg/mL,64 µg/mL,128 µg/mL,32 µg/mL,32 µg/mL,64 µg/mL,64 µg/mL,"MIC [7, 27]: 64 µg/mL"
"CN[C@H](CC(C)C)C(=O)N[C@H]1C(=O)N[C@@H](CC(N)=O)C(=O)N[C@H]2C(=O)N[C@H]3C(=O)N[C@H](C(=O)N[C@H](C(=O)O)c4cc(O)cc(O)c4-c4cc3ccc4O)[C@H](O)c3ccc(c(Cl)c3)Oc3cc2cc(c3O[C@@H]2O[C@H](CO)[C@@H](O)[C@H](O)[C@H]2O[C@H]2C[C@](C)(N)[C@H](O)[C@H](C)O2)Oc2ccc(cc2Cl)[C@H]1O [Vancomycin, vancomycin]",–,–,–,–,–,–,–,–,–,–,–,–,–,≤ 0.25 µg/mL,–,"MIC ([1]; Staphylococcus aureus, 76, 20 h): ≤ 0.25 µg/mL; MIC ([2]; SA201, 20 h): 0.5 µg/mL; MIC ([3]; ATCC29213, 20 h): ≤ 0.25 µg/mL; MIC ([4]; ATCC29212, 20 h): 1 µg/mL; MIC ([5]; UA281, 20 h): 1 µg/mL; MIC ([6]; ATCC27853, 20 h): > 128 µg/mL; MIC ([7]; V583, 20 h): 16 µg/mL; MIC ([8]; BM4147, 20 h): > 128 µg/mL; MIC ([9]; ATCC25922, 20 h): > 128 µg/mL; MIC ([10]; EFM040, 20 h): ≤ 0.25 µg/mL; MIC [11]: 1 µg/mL; MIC ([12]; ATCC35667, 20 h): ≤ 0.25 µg/mL; MIC ([13]; ATCC13709, 20 h): ≤ 0.25 µg/mL; MIC ([14]; PC1, 20 h): ≤ 0.25 µg/mL; MIC ([16]; ATCC33593, 20 h): 0.5 µg/mL"
CN1C(=O)C[C@H](CCCNC(=N)N)NC(=O)[C@H]1CNC(=N)NC(N)=O [TAN-1057C],–,–,–,–,–,–,–,–,–,–,–,–,–,–,–,conversion upon standing in water [17]: rapidly convert to a mixture of TAN-1057A/B upon standing in water
CN(C(=O)C[C@H](CCCN(C(=N)NC(=O)OCc1ccccc1)C(=O)OCc1ccccc1)NC(=O)OCc1ccccc1)C1CNC(NC(=O)NC(=O)OCc2ccccc2)=NC1=O (some centres unmarked) [Compound 29],–,–,–,–,–,–,–,–,–,–,–,–,–,–,–,t1/2 (tendency to form a bicycle by-product) [18]: about 1 day
"CC(=O)NC1=NC(=O)C(N(C)C(=O)C[C@@H](N)CCCNC(=N)N)CN1 (some centres unmarked) [Compound 73a, 3S,5'S/R-3-amino-6-[(aminoiminomethyl)amino]-N-(2-acetylamino-1,4,5,6-tetrahydro-4-oxo-5-pyrimidinyl)-N-methyl-hexanamide]",16 µg/mL,16 µg/mL,16 µg/mL,32 µg/mL,128 µg/mL,256 µg/mL,128 µg/mL,128 µg/mL,256 µg/mL,16 µg/mL,64 µg/mL,16 µg/mL,8 µg/mL,16 µg/mL,8 µg/mL,–
CN(C(=O)C[C@@H](N)CCCNC(=N)N)[C@@H]1CNC(NC(N)=O)=NC1=O [TAN-1057B],–,–,–,–,–,–,–,–,–,–,–,–,–,–,–,loss of antibacterial activity in basic aqueous solutions [19]: gradually lost their antibacterial activities in basic aqueous solutions
C[C@@H](O)[C@H]1C(=O)N2C(C(=O)O)=C(SCCN=CN)C[C@H]12 [Imipenem],8 µg/mL,64 µg/mL,≤ 0.25 µg/mL,0.5 µg/mL,64 µg/mL,1 µg/mL,8 µg/mL,≤ 0.25 µg/mL,> 128 µg/mL,32 µg/mL,4 µg/mL,≤ 0.25 µg/mL,≤ 0.25 µg/mL,≤ 0.25 µg/mL,8 µg/mL,"MIC [7, 27]: 0.5 µg/mL"
CN1C(=O)C[C@H](CCCNC(=N)N)NC(=O)[C@@H]1CNC(=N)NC(N)=O [TAN-1057D],–,–,–,–,–,–,–,–,–,–,–,–,–,–,–,relative antibacterial activity of stereoisomers [20]: more active than TAN-1057 B and C; conversion upon standing in water [17]: rapidly convert to a mixture of TAN-1057A/B upon standing in water
